These results are taken from patent US6426061B1, “Method and composition for preventing sweat-related odor” (priority 2001, dated 2002).

Assay [1] has as its system underarm odor, axillae skin of a panel of human subjects. The experiment in a line: Deodorant value test (modified): underarm odor scored 0-5 by three assessors every 24 h. Type of assay: in vivo. As to conditions: Example 2; single solution on one axilla versus vehicle on the other; compared with 8.2% aluminum chlorohydrate and 0.4% chlorhexidine digluconate. An excerpt:
A test for the deodorant effects of monensin or resveratrol alone was first carried out. The positive controls were 8.2% aluminum chlorohydrate, a level that is used in most deodorant or antiperspirant products on the market and 0.4% chlorhexidine digluconate, a level that is usually used for bacterial killing. The negative control was a vehicle consisting of 60% ethanol and 40% water. Three experienced underarm odor assessors who are able to correctly rank the odor intensities based on the deodorant value test system U.S. Pat. No. 4,278,658) performed odor assessments. I)odorant assessment scores were recorded according to the inalodor category scale, when applied directly to the axillae skin of a panel of human subjects.
The test described in deodorant value test system has been modified by measuring odor intensity every 24 hours after treatment until odor intensity is detectable (score 1 or up) on a 0-5 score instead of just 24 hours after treatment.
In this test, twenty subjects selected by experienced odor assessors have an average odor score of 3.5 (range from score 3-5). To prevent any any-over effects from occurring, all of subjects have not used any underarm products before test for at least 10 days. […] At 24 hour intervals, each subject was evaluated for underarm odor by averaging the score of the three assessors until odor in test groups was detectable (score 1 or up). […]

The subject of the next assay is apo D. Particulars: cited from earlier work.
The test system of the next assay is androgen receptor. As to conditions: prostate cancer cells; cited from earlier work.

Take `CC[C@@]1([C@@H]2O[C@@H]([C@H]3O[C@@](O)(CO)[C@H](C)C[C@@H]3C)C[C@@H]2C)CC[C@H]([C@]2(C)CC[C@]3(C[C@H](O)[C@@H](C)[C@@H]([C@@H](C)[C@@H](OC)[C@H](C)C(=O)O)O3)O2)O1` [monensin]: the “effectiveness in preventing underarm odor (deodorant effect, FIG. 1)” value in assay [1] is “more effective in preventing underarm odor than the positive control products”. In addition, the “effect on secretion of apo D from cells” value in the assay with apo D is “decreases secretion of apo D from cells”.

In the case of `Oc1ccc(C=Cc2cc(O)cc(O)c2)cc1` [Resveratrol, resveratrol], the “effect on expression and function of the androgen receptor” value in the assay on androgen receptor is “inhibit the expression and function of the androgen receptor”.
